A short description of this data set: CHI Log D procedure. Type of data set: physicochemical. Particulars: for CHI Log D: pH 7.4.

Usually chromatographic logD stands for lipophilicity estimated from chromatographic retention. The low end stands for lower lipophilicity, the high end for higher lipophilicity. `CC(=O)N[C@@H](Cc1ccccc1)C(=O)N[C@@H](CC(=O)O)C(=O)N[C@@H](C)C(=O)N[C@]1(C)CCCCCCC=CCOC(=O)N2CC[C@@](C(=O)N[C@@H](CCC(=O)O)C(=O)N[C@@H](Cc3c[nH]c4ccccc34)C(=O)N[C@@H](CCC(N)=O)C(N)=O)(C2)NC(=O)[C@H](C(C)C)NC(=O)[C@H](Cc2ccccc2)NC(=O)[C@H](C)NC(=O)[C@H](C)NC(=O)[C@H](CC(=O)O)NC(=O)[C@H](CC(=O)O)NC1=O` (single isomer, unassigned) [I-161, Ac-Phe-Asp-Ala-R8-Asp-Asp-Ala-Ala-Phe-Val-PyrS-Glu-Trp-Gln-NH2] had a chromatographic logD (pH 7.4, CHI Log D) of 0.816. Turning to `CC(=O)N[C@@H](Cc1ccccc1)C(=O)N[C@@H](CC(=O)O)C(=O)N[C@@H](C)C(=O)N[C@]1(C)CCCCCCC=CCOC(=O)N2CC[C@@](C(=O)N[C@@H](CCC(=O)O)C(=O)N[C@@H](Cc3c[nH]c4ccccc34)C(=O)N[C@@H](CCC(N)=O)C(N)=O)(C2)NC(=O)[C@H](C(C)C)NC(=O)[C@H](Cc2ccccc2)NC(=O)[C@H](C)NC(=O)[C@H](C)NC(=O)[C@H](CC(=O)O)NC(=O)[C@H](CC(=O)O)NC1=O` (single isomer, unassigned) [I-162, Ac-Phe-Asp-Ala-R8-Asp-Asp-Ala-Ala-Phe-Val-PyrS-Glu-Trp-Gln-NH2], the “CHI Log D” value came to 0.827. As for `CC(=O)N1CCC[C@]12CC=CCCCC1(CCCC=CCCCCCC[C@@](C)(C(=O)N[C@@H](Cc3ccccc3)C(=O)N[C@@H](Cc3c[nH]c4ccccc34)C(=O)N[C@@H](CCC(N)=O)C(N)=O)NC(=O)[C@H](C(C)C)NC(=O)[C@H](Cc3ccccc3)NC(=O)[C@H](C)NC(=O)[C@H](C)NC(=O)[C@@](C)(CC(C)C)NC(=O)[C@H](CC(=O)O)NC1=O)NC(=O)[C@H](C)NC(=O)[C@H](CC(=O)O)NC2=O` (single isomer, unassigned) [I-215, Ac-PL3-Asp-Ala-B5-Asp-DaMeL-Ala-Ala-Phe-Val-S8-Phe-Trp-Gln-NH2], under “pH 7.4, CHI Log D”, the chromatographic logD came to 2.87. In the case of `CC(=O)N1CCC[C@]12CC=CCCCC1(CCCC=CCCCCCC[C@@](C)(C(=O)N[C@@H](Cc3ccccc3)C(=O)N[C@@H](Cc3c[nH]c4ccccc34)C(=O)N[C@@H](CCC(N)=O)C(N)=O)NC(=O)[C@H](C(C)C)NC(=O)[C@H](Cc3ccccc3)NC(=O)[C@H](C)NC(=O)[C@H](C)NC(=O)[C@@](C)(CC(C)C)NC(=O)[C@H](CC(=O)O)NC1=O)NC(=O)[C@H](C)NC(=O)[C@H](CC(=O)O)NC2=O` (single isomer, unassigned) [I-216, Ac-PL3-Asp-Ala-B5-Asp-DaMeL-Ala-Ala-Phe-Val-S8-Phe-Trp-Gln-NH2], the “CHI Log D” value stood at 2.867. Turning to `CC(=O)N1CCC[C@]12CC=CCCCC1(CCCC=CCCCCCC[C@@](C)(C(=O)N[C@@H](Cc3ccc(Cl)cc3)C(=O)N[C@@H](Cc3c[nH]c4ccccc34)C(=O)N[C@@H](CCC(N)=O)C(N)=O)NC(=O)[C@H](C(C)C)NC(=O)[C@H](Cc3ccccc3)NC(=O)[C@H](C)NC(=O)[C@H](C)NC(=O)[C@H](CC(=O)O)NC(=O)[C@H](CC(=O)O)NC1=O)NC(=O)[C@H](C)NC(=O)[C@H](CC(=O)O)NC2=O` (single isomer, unassigned) [I-312, Ac-PL3-Asp-Ala-B5-Asp-Asp-Ala-Ala-Phe-Val-S8-4C1F-Trp-Gln-NH2], the chromatographic logD (pH 7.4, CHI Log D) worked out at 2.13. Compound `CC(=O)N1CCC[C@]12CC=CCCCC1(CCCC=CCCCCCC[C@@](C)(C(=O)N[C@@H](Cc3ccccc3)C(=O)N[C@@H](Cc3c[nH]c4ccccc34)C(=O)N[C@@H](CCC(N)=O)C(N)=O)NC(=O)[C@H](C(C)C)NC(=O)[C@H](Cc3ccccc3)NC(=O)[C@H](C)NC(=O)[C@H](C)NC(=O)[C@H](CCC(=O)O)NC(=O)[C@H](CC(=O)O)NC1=O)NC(=O)[C@H](C)NC(=O)[C@H](Cc1c[nH]cn1)NC2=O` (single isomer, unassigned) [I-314, Ac-PL3-His-Ala-B5-Asp-Glu-Ala-Ala-Phe-Val-S8-Phe-Trp-Gln-NH2] returned a chromatographic logD (pH 7.4, CHI Log D) of 2.34. In the case of `CC(=O)N1CCC[C@]12CC=CCCCC1(CCCC=CCCCCCC[C@@](C)(C(=O)N[C@@H](Cc3ccccc3)C(=O)N[C@@H](Cc3c[nH]c4ccccc34)C(=O)N[C@@H](CCC(N)=O)C(N)=O)NC(=O)[C@H](C(C)C)NC(=O)[C@H](Cc3c[nH]cn3)NC(=O)[C@H](C)NC(=O)[C@H](C)NC(=O)[C@H](CC(=O)O)NC(=O)[C@H](CC(=O)O)NC1=O)NC(=O)[C@H](C)NC(=O)[C@H](CC(=O)O)NC2=O` (single isomer, unassigned) [I-320, Ac-PL3-Asp-Ala-B5-Asp-Asp-Ala-Ala-His-Val-S8-Phe-Trp-Gln-NH2], the chromatographic logD (pH 7.4, CHI Log D) amounted to 2.04. Usually logD stands for lipophilicity at a set pH, counting ionised and neutral species. Regarding `CC(=O)N1CCC[C@]12CC=CCCCC1(CCCC=CCCCCCC[C@@](C)(C(=O)N[C@@H](Cc3ccccc3)C(=O)N[C@@H](Cc3c[nH]c4ccccc34)C(=O)N[C@@H](CO)C(N)=O)NC(=O)[C@H](C(C)C)NC(=O)[C@H](Cc3ccccc3)NC(=O)[C@H](C)NC(=O)[C@H](C)NC(=O)[C@H](CC(=O)O)NC(=O)[C@H](CC(=O)O)NC1=O)NC(=O)[C@H](C)NC(=O)[C@H](CC(=O)O)NC2=O` (single isomer, unassigned) [I-334, Ac-PL3-Asp-Ala-B5-Asp-Asp-Ala-Ala-Phe-Val-S8-Phe-WCHO-Ser-NH2], the logD (pH 7.4, CHI Log D) worked out at 1.86. `CC(=O)N1CCC[C@]12CC=CCCCC1(CCCC=CCCCCCC[C@@](C)(C(=O)N[C@@H](Cc3ccccc3)C(=O)N[C@@H](Cc3c[nH]c4ccccc34)C(=O)N[C@@H](CO)C(N)=O)NC(=O)[C@H](C(C)C)NC(=O)[C@H](Cc3ccccc3)NC(=O)[C@H](C)NC(=O)[C@H](C)NC(=O)[C@H](CC(=O)O)NC(=O)[C@H](CC(=O)O)NC1=O)NC(=O)[C@H](C)NC(=O)[C@H](CC(=O)O)NC2=O` (single isomer, unassigned) [I-335, Ac-PL3-Asp-Ala-B5-Asp-Asp-Ala-Ala-Phe-Val-S8-Phe-WCHO-Ser-NH2]: the “CHI Log D” value turned out to be 1.928. As to `CC(=O)N[C@@H](Cc1ccccc1)C(=O)N[C@@H](CC(=O)O)C(=O)N[C@@H](C)C(=O)N[C@]1(C)CCCCCCC=CCOC(=O)N2CC[C@@](C(=O)N[C@@H](Cc3ccccc3)C(=O)N[C@@H](Cc3c[nH]c4ccccc34)C(=O)N[C@@H](CCC(N)=O)C(N)=O)(C2)NC(=O)[C@H](C(C)C)NC(=O)[C@H](Cc2ccccc2)NC(=O)[C@H](C)NC(=O)[C@H](C)NC(=O)[C@H](CCC(=O)O)NC(=O)[C@H](CC(=O)O)NC1=O` [I-3, Ac-Phe-Asp-Ala-R8-Asp-Glu-Ala-Ala-Phe-Val-PyrS-Phe-Trp-Gln-NH2], the “CHI Log D” value is reported as 1.307.

With `CC(=O)N[C@@H](Cc1ccccc1)C(=O)N[C@@H](CC(=O)O)C(=O)N[C@@H](C)C(=O)N[C@]1(C)CCCCCCC=CCOC(=O)N2CC[C@@](C(=O)N[C@@H](Cc3ccccc3)C(=O)N[C@@H](Cc3c[nH]c4ccccc34)C(=O)N[C@@H](CCC(N)=O)C(N)=O)(C2)NC(=O)[C@H](C(C)C)NC(=O)[C@H](Cc2ccccc2)NC(=O)[C@H](C)NC(=O)[C@H](C)NC(=O)[C@H](CCC(=O)O)NC(=O)[C@H](CC(=O)O)NC1=O` [I-4, Ac-Phe-Asp-Ala-R8-Asp-Glu-Ala-Ala-Phe-Val-PyrS-Phe-Trp-Gln-NH2], the “CHI Log D” value was 1.353. `CCCC[C@@H]1NC(=O)[C@H](CC(=O)O)NC(=O)[C@](C)(NC(=O)[C@H](C)NC(=O)[C@H](CC(=O)O)NC(=O)[C@H](Cc2ccccc2)NC(C)=O)CCCCCCC=CCOC(=O)N2CC[C@@](C(=O)N[C@@H](Cc3ccccc3)C(=O)N[C@@H](Cc3c[nH]c4ccccc34)C(=O)N[C@@H](CCC(N)=O)C(N)=O)(C2)NC(=O)[C@H](C(C)C)NC(=O)[C@H](Cc2ccccc2)NC(=O)[C@H](C)NC(=O)[C@H](C)NC1=O` [I-14, Ac-Phe-Asp-Ala-R8-Asp-nLeu-Ala-Ala-Phe-Val-PyrS-Phe-Trp-Gln-NH2]: the “CHI Log D” value is given as 2.013.

On to `CC(=O)N[C@@H](Cc1ccccc1)C(=O)N[C@@H](CC(=O)O)C(=O)N[C@@H](C)C(=O)N[C@]1(C)CCCCCCC=CCOC(=O)N2CC[C@@](C(=O)N[C@@H](Cc3ccccc3)C(=O)N[C@@H](Cc3c[nH]c4ccccc34)C(=O)N[C@@H](CCC(N)=O)C(N)=O)(C2)NC(=O)[C@H](C(C)C)NC(=O)[C@H](Cc2ccccc2)NC(=O)[C@H](CCCC(=O)O)NC(=O)[C@H](C)NC(=O)[C@H](CC(=O)O)NC(=O)[C@H](CC(=O)O)NC1=O` [I-23, Ac-Phe-Asp-Ala-R8-Asp-Asp-Ala-Aad-Phe-Val-PyrS-Phe-Trp-Gln-NH2], for which the “CHI Log D” value amounted to 0.942. As for `CC(=O)N[C@@H](Cc1ccccc1)C(=O)N[C@@H](CC(=O)O)C(=O)N[C@@H](C)C(=O)N[C@]1(C)CCCCCCC=CCOC(=O)N2CC[C@@](C(=O)N[C@@H](Cc3ccccc3)C(=O)N[C@@H](Cc3c[nH]c4ccccc34)C(=O)N[C@@H](CCC(N)=O)C(N)=O)(C2)NC(=O)[C@H](C(C)C)NC(=O)[C@H](Cc2ccccc2)NC(=O)[C@H](CCCC(=O)O)NC(=O)[C@H](C)NC(=O)[C@H](CC(=O)O)NC(=O)[C@H](CC(=O)O)NC1=O` [I-24, Ac-Phe-Asp-Ala-R8-Asp-Asp-Ala-Aad-Phe-Val-PyrS-Phe-Trp-Gln-NH2], the “CHI Log D” value is 0.977.

On to `CC(=O)N[C@@H](Cc1ccccc1)C(=O)N[C@@H](CC(=O)O)C(=O)N[C@@H](C)C(=O)N[C@]1(C)CCCCC=CCOC(=O)N(C)CCC[C@@](C)(C(=O)N[C@@H](Cc2ccccc2)C(=O)N[C@@H](Cc2c[nH]c3ccccc23)C(=O)N[C@@H](CCC(N)=O)C(N)=O)NC(=O)[C@H](C(C)C)NC(=O)[C@H](Cc2ccccc2)NC(=O)[C@H](C)NC(=O)[C@H](C)NC(=O)[C@H](CC(=O)O)NC(=O)[C@H](CC(=O)O)NC1=O` [I-26, Ac-Phe-Asp-Ala-R6-Asp-Asp-Ala-Ala-Phe-Val-SeN-Phe-Trp-Gln-NH2], for which the chromatographic logD (pH 7.4, CHI Log D) is 1.25. Regarding `CC(=O)N[C@@H](Cc1ccccc1)C(=O)N[C@@H](CC(=O)O)C(=O)N[C@@H](C)C(=O)N[C@]1(C)CCCN(C)C(=O)OCC=CCCC[C@@](C)(C(=O)N[C@@H](Cc2ccccc2)C(=O)N[C@@H](Cc2c[nH]c3ccccc23)C(=O)N[C@@H](CCC(N)=O)C(N)=O)NC(=O)[C@H](C(C)C)NC(=O)[C@H](Cc2ccccc2)NC(=O)[C@H](C)NC(=O)[C@H](C)NC(=O)[C@H](CC(=O)O)NC(=O)[C@H](CC(=O)O)NC1=O` [I-27, Ac-Phe-Asp-Ala-ReN-Asp-Asp-Ala-Ala-Phe-Val-S5-Phe-Trp-Gln-NH2], for the setting “pH 7.4, CHI Log D”, the chromatographic logD is 1.15.

These data come from patent US20240116985A1, “STAPLED PEPTIDES AND METHODS THEREOF” (priority 2020, published 2024).
